Experimental data published in PMC6609034, “Unraveling the role of the secretor antigen in human rotavirus attachment to histo-blood group antigens” (PLoS Pathogens, 2019).

Assays:
Set-up in all cases: species or system human rotavirus
[1] = system: Wa TLP (triple-layered particles); assay: ELISA-like glycan binding assay of rotavirus particles; details: TLP 10 to 0.078 μg/ml
Excerpt: (§1) African green monkey kidney epithelial cells (MA104 cell line; ATTC #CRL-2378.1) were used for the propagation of rotavirus Wa strain that belongs to the globally dominant human genotype G1P[8]. Briefly, ten MA104 cells confluent 150-cm^2 flasks (approximately 1.5 ×10^7 cells/flask) were infected with Wa strain at a multiplicity of infection (MOI) of ≤ 0.1 and processed as previously described. One hundred ml of medium with 1.5x10^8 virus/ml were obtained and the viral particles were concentrated by pelleting at 160,000 × g for 1 h at 4°C in a SW 41 rotor (Beckman). The viral pellet was resuspended in TNC buffer (20 mM Tris-HCl pH 8.0, 100 mM NaCl, 1 mM CaCl2) for triple-layered particles (TLP) or in TNE (20 mM Tris-HCl, pH 8.0, 100 mM NaCl, 1 mM EDTA) for double-layered particles (DLP).
(§2) An ELISA-like binding assay was employed to determine the binding ability of rotavirus TLP and DLP to the H type-1 antigen and to its precursor LNB. Streptavidin plates were coated with the biotinylated oligosaccharides as described above. After washing with PBS-T, two fold serial dilutions of TLPs and DLP were added to the plate (ranging from 10 μg/ml to 0.078 μg/ml). The TLP were always maintained in TNC-T (20 mM Tris, 100 mM NaCl, 1 mM CaCl2, 0.05% Tween 20, pH 7,4) buffer and the binding and washing steps were always carried out in this solution. DLPs assays were carried out in Tris-buffered saline buffer with Tween 20 (TBS-T, 20 mM Tris, 100 mM NaCl, 0.05% Tween 20, pH 7.4). TLP and DLP were incubated in the plate overnight at 4°C. After binding, the plates were washed three times in TNC-T (for TLP) or TBS-T (for DLP) with 0.05% Tween 20 (TNC-T and TBS-T), and a mouse anti-VP6 antibody was added at 1:100 in TNC-T or TBS-T and incubated 1 h at 37°C. The plates were then washed three times with TNC-T or TBS-T, and a HRP-conjugated anti-mouse IgG was added at 1:10.000 and incubated at 37°C for 1 h. […] Fluorescence units were recorded by a MultiScan microplate reader.

[2] = system: Wa DLP (double-layered particles); assay: as above; details: DLP 10 to 0.078 μg/ml
Excerpt: as §1, §2

VP8* P[6] = assay: ELISA-like binding assay to biotinylated HBGAs; details: biotinylated PAA glycan 2 μg/ml, VP8* 10 μg/ml
Excerpt: (§3) A panel of biotinylated sugar antigens including Le^a, Le^b, Le^c (lacto-N-biose; LNB), H type-1, H type-2 and blood group A and B trisaccharides were purchased from Glyconz (Fig 1 and S1 Table). These glycans are biotinylated neoglyconjugates of a poly[N-(2-hydroxyethyl)acrylamide] (PAA) with a size from 30 to 50 KDa. This forms a flexible polymer ideal for a multivalent presentation of glycans. Immobilized streptavidin F96 black plates (Nunc) were coated with the biotinylated oligosaccharides (2 μg/ml) in milli-Q water and incubated during 1 hour at 37°C. After functionalization the plates were washed once with PBS containing 0.05% of Tween 20 (PBS-T) and the VP8* proteins were added (10 μg/ml) and incubated at 4°C overnight. After three washes with PBS-T, a rabbit polyclonal antibody anti GST (1:1,000) (Abcam) was added and the plates were incubated one hour at 37°C. Then, the plates were washed three times with PBS-T and incubated for 1 h at 37°C with 1:10,000 dilution of horseradish peroxidase (HRP)-conjugated goat anti-rabbit (Abcam). After three washes with PBS-T, the binding was detected using QuantaBlue reagent (ThermoFisher) kit, as recommended by the manufacturer. Fluorescence units were registered by a MultiScan microplate reader. All the binding assays were performed in triplicate.

VP8* P[4] = assay: ELISA-like binding assay to biotinylated HBGAs; details: biotinylated PAA glycan 2 μg/ml, VP8* 10 μg/ml
Excerpt: as §3

[3] = system: VP8* P[8]c binding to LNB; assay: Binding blocking assay, immobilized LNB; details: soluble sugar at 20 mM
Protocol: (§4) To confirm the binding of the VP8* from the P[8] genotype to the H type-1 precursor LNB, a blocking assay was performed using soluble LNB and its related disaccharide galacto-N-biose (Gal-β-1,3-GalNAc; GNB) produced and purified in our laboratory as previously described.
(§5) Streptavidin microtiter plates were coated with biotinylated H type-1 antigen or LNB at 2 μg/ml with water and incubated for 1 hour at 37°C, followed by an overnight incubation at 4°C. Blocking assays were performed in parallel, using glass tubes containing the P[8]c and P[8]Wa VP8* protein at their EC50 for each ligand and 20 mM of each of the soluble disaccharides (LNB and GNB) and monosaccharides (D-galactose, GlcNAc and GalNAc). A positive binding control without sugar was also included. The tubes containing the mixes of VP8* with sugars were maintained 1 hour at 37°C, followed by an overnight incubation at 4°C. The next day the coated streptavidin plates were washed with PBS-T, the VP8*-sugar solutions were added to the plates and incubated during 4 hours at 4°C. The plates were washed three times with PBS-T and detection of the interactions was performed as described above. The results are presented as the percentage (%) of binding of each condition compared to the binding of the positive binding control (without blocking sugar). All experiments were performed in triplicate.

[4] = system: VP8* P[8]c binding to the H1 antigen; assay: Binding blocking assay, immobilized H1 antigen; details: soluble sugar at 20 mM
Protocol: as §4, §5

SMILES | binding of rotavirus particles (ELISA-like) [1] | binding of rotavirus particles (ELISA-like) [2] | binding (ELISA-like) (VP8* P[6]) | binding (ELISA-like) (VP8* P[4]) | reduction of the binding of VP8* P[8]c to LNB [3] | reduction in the binding to the H1 antigen [4]
CC(=O)NC1C(O)OC(CO)C(O)C1OC1OC(CO)C(O)C(O)C1OC1OC(C)C(O)C(O)C1O (stereo not drawn) [H1, Fuc-α1,2-Gal-β1,3-GlcNAc] | able to bind | not | recognized | recognized | – | –
CC(=O)NC1C(O)OC(CO)C(O)C1OC1OC(CO)C(O)C(O)C1O (stereo not drawn) [LNB, Gal-β1,3-GlcNAc] | able to bind | not | – | – | 52.2% | 24.2%
